Measured values taken from patent US20060198889A1, “Roflumilast and integrin inhibitor combination and treatement method” (priority 2005, published 2006).

What was measured:
[1] = system: mild/moderate asthmatics not treated with inhaled corticosteroids; assay: ARES study: R411 monotherapy, 12 week treatment period; type: in vivo, human; conditions: for Asthma control Questionnaire (Total Score), change from baseline / Morning asthma symptoms, change from baseline / Rescue β2-agonist use (puffs/d), change from baseline: ITT population
Protocol: The ARES study illustrated in FIG. 3 was designed to evaluate the safety and efficacy of monotherapy R411 over a 12 week treatment period in 480 mild/moderate asthmatics not treated with inhaled corticosteroids. Patients were randomized to one of four cohorts: 50, 200, 600 mg QD R411, or placebo (n=120/group). The primary endpoint in the study was change in FEV1 from baseline, and secondary endpoints included PEFR, asthma exacerbations, β2-agonist use, asthma control questionnaire, asthma symptom scores, and nocturnal awakenings. Small airway inflammation represents a clinically significant component of moderate to severe asthma that is not adequately controlled by currently available inhaled corticosteroids therapies.
ARES study evaluated the safety and efficacy of monotherapy with R411 over a 12-week treatment period in 479 mild/moderate asthmatics not treated with inhaled corticosteroids. Patients were randomized to one of four cohorts: 50, 200, 600 mg once daily R411, or placebo.

[2] = target: α4/β1 integrin (Homo sapiens, UniProt P05556+P13612); assay: Inhibition of α4/β1 binding to VCAM-1
[3] = system: airway inflammation in the atopic primate; assay: Airway inflammation in the atopic primate, oral R411 (FIG. 4); type: in vivo; conditions: oral administration, atopic primate (FIG. 4)
[4] = target: T1, α4/β7 integrin (Homo sapiens, UniProt P13612+P26010); assay: Inhibition of α4/β7 binding to MadCAM-1
T1 sequence (P13612 34-1032): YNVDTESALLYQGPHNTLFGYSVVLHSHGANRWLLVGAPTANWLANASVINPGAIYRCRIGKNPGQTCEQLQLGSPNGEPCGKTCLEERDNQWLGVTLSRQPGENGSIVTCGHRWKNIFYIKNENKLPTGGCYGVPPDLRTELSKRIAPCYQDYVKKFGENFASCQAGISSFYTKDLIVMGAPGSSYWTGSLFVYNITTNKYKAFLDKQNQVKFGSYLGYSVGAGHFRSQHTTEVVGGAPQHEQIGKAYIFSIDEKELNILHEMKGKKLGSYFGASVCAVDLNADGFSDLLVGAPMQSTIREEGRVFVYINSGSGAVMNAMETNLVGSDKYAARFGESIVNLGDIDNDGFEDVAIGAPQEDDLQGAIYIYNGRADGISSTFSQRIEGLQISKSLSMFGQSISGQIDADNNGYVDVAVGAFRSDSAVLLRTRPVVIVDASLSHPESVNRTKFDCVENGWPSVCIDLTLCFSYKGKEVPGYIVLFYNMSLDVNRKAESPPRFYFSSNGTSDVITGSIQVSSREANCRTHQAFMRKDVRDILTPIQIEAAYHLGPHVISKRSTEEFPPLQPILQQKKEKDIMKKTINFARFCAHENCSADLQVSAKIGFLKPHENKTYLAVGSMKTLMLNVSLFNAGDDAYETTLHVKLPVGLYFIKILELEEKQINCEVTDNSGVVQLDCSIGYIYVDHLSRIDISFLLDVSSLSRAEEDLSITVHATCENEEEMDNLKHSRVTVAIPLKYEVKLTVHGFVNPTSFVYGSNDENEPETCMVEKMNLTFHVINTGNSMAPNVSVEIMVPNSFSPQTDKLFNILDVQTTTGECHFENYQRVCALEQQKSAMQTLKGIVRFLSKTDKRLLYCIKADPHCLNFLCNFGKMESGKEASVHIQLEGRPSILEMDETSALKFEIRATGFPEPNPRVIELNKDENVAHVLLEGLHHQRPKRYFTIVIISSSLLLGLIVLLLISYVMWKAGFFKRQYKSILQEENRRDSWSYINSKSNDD
T1 sequence (P26010 20-798): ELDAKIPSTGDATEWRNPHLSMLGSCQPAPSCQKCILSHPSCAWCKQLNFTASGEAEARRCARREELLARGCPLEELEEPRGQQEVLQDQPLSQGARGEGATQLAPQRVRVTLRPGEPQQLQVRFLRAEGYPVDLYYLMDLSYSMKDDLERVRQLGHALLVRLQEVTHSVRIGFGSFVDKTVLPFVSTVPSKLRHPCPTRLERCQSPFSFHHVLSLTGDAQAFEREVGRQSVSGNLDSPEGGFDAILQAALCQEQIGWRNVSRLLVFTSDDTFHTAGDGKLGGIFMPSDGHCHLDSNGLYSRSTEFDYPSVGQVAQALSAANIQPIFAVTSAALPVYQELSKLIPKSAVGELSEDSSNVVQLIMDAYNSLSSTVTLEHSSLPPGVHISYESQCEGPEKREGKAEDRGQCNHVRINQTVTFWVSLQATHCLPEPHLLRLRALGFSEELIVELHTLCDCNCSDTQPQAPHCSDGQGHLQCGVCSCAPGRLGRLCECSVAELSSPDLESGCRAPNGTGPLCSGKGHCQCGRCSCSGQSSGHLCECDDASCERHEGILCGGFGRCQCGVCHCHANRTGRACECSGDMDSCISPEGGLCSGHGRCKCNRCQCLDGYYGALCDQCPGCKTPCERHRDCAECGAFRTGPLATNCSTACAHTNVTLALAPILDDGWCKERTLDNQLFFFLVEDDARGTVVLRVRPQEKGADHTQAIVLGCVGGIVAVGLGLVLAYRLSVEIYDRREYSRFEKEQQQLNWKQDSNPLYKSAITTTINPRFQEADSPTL

[5] = 12-week monotherapy, versus placebo

α4/β1 integrin, sequence (P05556 21-798, one chain of several): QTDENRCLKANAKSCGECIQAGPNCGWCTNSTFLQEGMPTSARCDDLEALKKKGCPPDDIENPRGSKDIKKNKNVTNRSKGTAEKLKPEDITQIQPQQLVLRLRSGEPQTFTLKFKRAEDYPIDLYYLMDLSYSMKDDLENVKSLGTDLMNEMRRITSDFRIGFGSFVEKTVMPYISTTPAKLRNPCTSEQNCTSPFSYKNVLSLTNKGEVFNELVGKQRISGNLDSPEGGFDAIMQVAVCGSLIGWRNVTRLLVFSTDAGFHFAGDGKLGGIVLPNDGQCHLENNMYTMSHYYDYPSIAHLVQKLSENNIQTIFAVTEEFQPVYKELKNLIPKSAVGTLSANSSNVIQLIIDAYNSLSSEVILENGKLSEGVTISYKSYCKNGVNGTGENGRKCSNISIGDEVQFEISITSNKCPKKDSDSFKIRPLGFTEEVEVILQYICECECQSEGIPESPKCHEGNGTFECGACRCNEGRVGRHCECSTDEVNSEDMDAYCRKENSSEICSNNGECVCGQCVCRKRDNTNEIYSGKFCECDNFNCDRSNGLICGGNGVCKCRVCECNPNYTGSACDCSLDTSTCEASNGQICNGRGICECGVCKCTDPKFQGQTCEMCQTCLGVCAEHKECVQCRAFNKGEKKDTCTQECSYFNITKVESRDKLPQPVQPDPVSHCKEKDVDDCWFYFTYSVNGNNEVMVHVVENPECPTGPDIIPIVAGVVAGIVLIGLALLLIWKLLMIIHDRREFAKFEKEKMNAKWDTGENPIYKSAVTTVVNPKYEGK

CCN(CC)CCOC(=O)[C@H](Cc1ccc(NC(=O)c2c(Cl)cccc2Cl)cc1)NC(=O)c1c(C)cccc1Cl [R411, N-(2-Chloro-6-methylbenzoyl)-4-[(2,6-dichlorobenzoyl)amino]-L-phenylalanine-2-(diethylamino)ethyl ester]
decrease in daytime asthma symptom score [1, 5]: Statistically significant improvements | decrease in nocturnal symptom score [1, 5]: Statistically significant improvements | Asthma control Questionnaire (Total Score), change from baseline ([1]; R411 200 mg once daily): −0.29 [2.08] Total Score | Morning asthma symptoms, change from baseline ([1]; R411 200 mg once daily): −0.34*[1.55] | Rescue β2-agonist use (puffs/d), change from baseline ([1]; R411 200 mg once daily, N = 117): −0.36/[3.04] puffs/d | Asthma control Questionnaire (Total Score), change from baseline ([1]; R411 600 mg once daily): −0.23 [2.00] Total Score | Morning asthma symptoms, change from baseline ([1]; R411 600 mg once daily): −0.33*[1.57] | Rescue β2-agonist use (puffs/d), change from baseline ([1]; R411 600 mg once daily, N = 119): −0.41*/[3.11] puffs/d | Asthma Control Questionnaire Scores ([1]; compared to placebo): Improvement | Asthma Quality-of-Life ([1]; compared to placebo): Improvement | binding of α4/β1 to vascular cell adhesion molecule (VCAM-1) [2]: inhibits | effectiveness against α4/β1 integrin [2]: effective | airway inflammation [3]: attenuates | binding of α4/β7 to MadCAM-1 [4]: inhibits | effectiveness against α4/β7 integrin [4]: effective
